In patent US20060293307A1, “Oxazolidinone derivatives as antimicrobials” (priority 2002, published 2006):
In brackets after ≈: the same amount, converted by molar mass. Where two headings read alike, the source gives them in different places.

Columns and labels:
E. faecalis 5B (VRE) = test: MIC, agar incorporation method; format: cell-based
Moraxella M6 = test: MIC, agar incorporation method; format: cell-based
H. influenzae 23 = test: MIC against Haemophilus strains; format: cell-based
H. influenzae 49766 = test: MIC against Haemophilus strains; format: cell-based
H. influenzae 1381 = test: MIC against Haemophilus strains; format: cell-based
H. influenzae 451 = test: MIC against Haemophilus strains; format: cell-based
M. tuberculosis ATCC = test: MIC against M. tuberculosis strains, agar dilution; format: cell-based, Mycobacterium tuberculosis; conditions: Mycobacterium tuberculosis, S. No. 01.Mt-, Middle Brook 7H10 + OADC, 37° C., 14-21 days, read-out: MIC
M. tuberculosis 35801 = test: MIC against M. tuberculosis strains, agar dilution; format: cell-based, Mycobacterium tuberculosis; conditions: Mycobacterium tuberculosis, S. No. 02 Mt-, Middle Brook 7H10 + OADC, 37° C., 14-21 days, read-out: MIC
M. tuberculosis SGPGI = test: MIC against M. tuberculosis strains, agar dilution; format: cell-based, Mycobacterium tuberculosis; conditions: Mycobacterium tuberculosis, S. No. 05 Mt-, Middle Brook 7H10 + OADC, 37° C., 14-21 days, read-out: MIC
M. tuberculosis M-66 = test: MIC against M. tuberculosis strains, agar dilution; format: cell-based, Mycobacterium tuberculosis; conditions: Mycobacterium tuberculosis, M66, S. No. 08 Mt-, Middle Brook 7H10 + OADC, 37° C., 14-21 days, read-out: MIC
M. tuberculosis M-168 = test: MIC against M. tuberculosis strains, agar dilution; format: cell-based, Mycobacterium tuberculosis; conditions: Mycobacterium tuberculosis, M168, S. No. 09 Mt-, Middle Brook 7H10 + OADC, 37° C., 14-21 days, read-out: MIC
M. tuberculosis 50 = test: MIC against M. tuberculosis strains, agar dilution; format: cell-based, Mycobacterium tuberculosis; conditions: Mycobacterium tuberculosis, S. No. 12 Mt-, Middle Brook 7H10 + OADC, 37° C., 14-21 days, read-out: MIC
M. tuberculosis V-3093 = test: MIC against M. tuberculosis strains, agar dilution; format: cell-based, Mycobacterium tuberculosis; conditions: Mycobacterium tuberculosis, V3093, S. No. 14 Mt-, Middle Brook 7H10 + OADC, 37° C., 14-21 days, read-out: MIC
M. tuberculosis M-149 = test: MIC against M. tuberculosis strains, agar dilution; format: cell-based, Mycobacterium tuberculosis; conditions: Mycobacterium tuberculosis, M149, S. No. 15 Mt-, Middle Brook 7H10 + OADC, 37° C., 14-21 days, read-out: MIC
M. tuberculosis PC = test: MIC against M. tuberculosis strains, agar dilution; format: cell-based, Mycobacterium tuberculosis; conditions: Mycobacterium tuberculosis, S. No. 18 Mt-, Middle Brook 7H10 + OADC, 37° C., 14-21 days, read-out: MIC
M. tuberculosis PC 4782 = test: MIC against M. tuberculosis strains, agar dilution; format: cell-based, Mycobacterium tuberculosis; conditions: Mycobacterium tuberculosis, PC4782, S. No. 21 Mt-, Middle Brook 7H10 + OADC, 37° C., 14-21 days, read-out: MIC
M. avium ATCC 49601 = test: MIC against MAC strains, agar dilution; format: cell-based, Mycobacterium avium; conditions: Mycobacterium avium, ATCC49601; S. No. 01 Ma-1, M. avium ATCC 49601; Middle Brook 7H10 + OADC, 37° C., 14-21 days; read-out: MIC
[1] = system: M. avium intracellulare 4; test: MIC against MAC strains, agar dilution; format: cell-based; conditions: Mycobacterium avium; S. No. 11 Mai-2, M. avium intracellulare 4; Middle Brook 7H10 + OADC, 37° C., 14-21 days; read-out: MIC
[2] = S. No. 19, E. faecalis 5B (VRE)
[3] = Haemophilus influenzae, s. No. 5, H. influenzae 23, read-out: MIC
[4] = Haemophilus influenzae, s. No. 6, H. influenzae 49766, read-out: MIC
[5] = Haemophilus influenzae, s. No. 7, H. influenzae 1381, read-out: MIC
[6] = Haemophilus influenzae, s. No. 8, H. influenzae 451, read-out: MIC

Row | Molecule | MIC (E. faecalis 5B (VRE); [2]) | MIC (Moraxella M6; S. No. 60, Moraxella M6) | MIC (H. influenzae 23; s. No. 5, H. influenzae 23) | MIC (H. influenzae 49766; s. No. 6, H. influenzae 49766) | MIC (H. influenzae 1381; s. No. 7, H. influenzae 1381) | MIC (H. influenzae 451; s. No. 8, H. influenzae 451) | MIC (E. faecalis 5B (VRE); Enterococcus faecalis, VRE) | MIC (Moraxella M6; Moraxella, M6) | MIC (H. influenzae 23; [3]) | MIC (H. influenzae 49766; [4]) | MIC (H. influenzae 1381; [5]) | MIC (H. influenzae 451; [6]) | further results
1 | CC(=O)NC[C@H]1CN(c2ccc(N3CCN(c4cc(C(OC(C)=O)OC(C)=O)sc4[N+](=O)[O-])CC3)c(F)c2)C(=O)O1 [Compound No. 5, (S)—N-[[3-[3-Fluoro-4-[4-{3-thienyl(2-nitro)-5-acetyloxy}methylacetate]-1-piperazinyl]phenyl]-2-oxo-5-oxazolidinyl]acetamide] | 1 µg/mL (≈ 1.68 µM) | 2 µg/mL (≈ 3.37 µM) | >16 µg/mL | >16 µg/mL | >16 µg/mL | >16 µg/mL |  |  |  |  |  |  | 
2 | C[C@H](Cl)C(=O)NCC1CN(c2ccc(N3CCN(c4ccc([N+](=O)[O-])s4)CC3)c(F)c2)C(=O)O1 (stereo partly drawn) [Compound No. 7, (S)—N-[[3-[3-Fluoro-4-[N-1-{4-(5-nitro-2-thienyl)piperazinyl}]-phenyl]-2-oxo-5-oxazolidinyl]-methyl]-2-chloro-propionamide] | >8 µg/mL | >8 µg/mL | >16 µg/mL | >16 µg/mL | >16 µg/mL | >16 µg/mL |  |  |  |  |  |  | 
3 | (S)—N-[[3-[-3-Fluoro-4-[(5-nitro-2-thienyl)-3-methyl-1-piperazinyl]phenyl]-2-oxo-5-oxazolidinyl]methyl]acetamide [Compound No. 10] | 1 µg/mL | 2 µg/mL | >16 µg/mL | >16 µg/mL | >16 µg/mL | >16 µg/mL |  |  |  |  |  |  | 
4 | O=C(NC[C@H]1CN(c2ccc(N3CCN(c4ccc([N+](=O)[O-])s4)CC3)c(F)c2)C(=O)O1)C(F)F [Compound No. 8, (S)—N-[[3-[3-Fluoro-4-[4-(5-nitro-2-thienyl)-1-piperazinyl]phenyl]-2-oxo-5-oxazolidinyl]methyl]difluoroacetamide] |  |  |  |  |  |  | 2 µg/mL (≈ 4 µM) | 1 µg/mL (≈ 2 µM) |  |  |  |  | MIC (H. influenzae 23; Haemophilus influenzae, 23): > 16 µg/mL; MIC (H. influenzae 49766; Haemophilus influenzae, 49766): > 16 µg/mL; MIC (H. influenzae 1381; Haemophilus influenzae, 1381): > 16 µg/mL; MIC (H. influenzae 451; Haemophilus influenzae, 451): > 16 µg/mL
5 | CC(=O)NC[C@H]1CN(c2ccc(N3CCN(c4ccc(C=O)s4)CC3)c(F)c2)C(=O)O1 [Compound No. 2, (S)—N-[[3-[3-Fluoro-4-[4-(5-formyl-2-thienyl)-1-piperazinyl]phenyl]-2-oxo-5-oxazolidinyl]methyl]acetamide] |  |  |  |  |  |  |  |  | > 16 µg/mL | > 16 µg/mL | 8 µg/mL (≈ 17.9 µM) | 16 µg/mL (≈ 35.8 µM) | MIC (E. faecalis 5B (VRE); Enterococcus faecalis, S. No. 19, E. faecalis 5B (VRE), read-out: MIC): 0.5 µg/mL (≈ 1.12 µM); MIC (Moraxella M6; S. No. 60, Moraxella M6, read-out: MIC): 0.5 µg/mL (≈ 1.12 µM)
6 | CN[C@H](CC(C)C)C(=O)N[C@H]1C(=O)N[C@@H](CC(N)=O)C(=O)N[C@H]2C(=O)N[C@H]3C(=O)N[C@H](C(=O)N[C@H](C(=O)O)c4cc(O)cc(O)c4-c4cc3ccc4O)[C@H](O)c3ccc(c(Cl)c3)Oc3cc2cc(c3O[C@@H]2O[C@H](CO)[C@@H](O)[C@H](O)[C@H]2O[C@H]2C[C@](C)(N)[C@H](O)[C@H](C)O2)Oc2ccc(cc2Cl)[C@H]1O [Vancomycin, reference compound] |  |  |  |  |  |  | > 16 µg/mL | > 8 µg/mL |  |  |  |  | 
7 | CC(=O)NC[C@H]1CN(c2ccc(N3CCOCC3)c(F)c2)C(=O)O1 [Linezolid, reference compound] |  |  |  |  |  |  | 2 µg/mL (≈ 5.93 µM) | 4 µg/mL (≈ 11.9 µM) | 16 µg/mL (≈ 47.4 µM) | 16 µg/mL (≈ 47.4 µM) | 16 µg/mL (≈ 47.4 µM) | 16 µg/mL (≈ 47.4 µM) | MIC (M. tuberculosis ATCC): 1 µg/mL; MIC (M. tuberculosis 35801): 1 µg/mL; MIC (M. tuberculosis SGPGI): 4 µg/mL; MIC (M. tuberculosis M-66): > 32 µg/mL; MIC (M. tuberculosis M-168): 4 µg/mL; MIC (M. tuberculosis 50): > 32 µg/mL; MIC (M. tuberculosis V-3093): 1 µg/mL; MIC (M. tuberculosis M-149): 32 µg/mL; MIC (M. tuberculosis PC): 0.5 µg/mL; MIC (M. tuberculosis PC 4782): 1 µg/mL; MIC (M. avium ATCC 49601): 0.5 µg/mL; MIC [1]: 8 µg/mL
8 | CC(=O)NC[C@H]1CN(c2ccc(N3CCN(c4ccc(C=O)o4)CC3)c(F)c2)C(=O)O1 [Compound No. 3, (S)—N-[[3-[3-Fluoro-4-[4-(5-formyl-2-furyl)-1-piperazinyl]phenyl]-2-oxo-5-oxazolidinyl]methyl]acetamide] |  |  |  |  |  |  |  |  | 8 µg/mL (≈ 18.6 µM) | 8 µg/mL (≈ 18.6 µM) | 8 µg/mL (≈ 18.6 µM) | 8 µg/mL (≈ 18.6 µM) | 
9 | O=C(NC[C@H]1CN(c2ccc(N3CCN(c4ccc([N+](=O)[O-])s4)CC3)c(F)c2)C(=O)O1)C(Cl)Cl [compound 9, (S)—N-[[3-[-3-Fluoro-4-[N-1-(5-nitro-2-thienyl)-piperazinyl]phenyl] -2-oxo-5-oxazolidinyl]methyl]dichloroacetamide] | 0.5 µg/mL (≈ 0.939 µM) | 1 µg/mL (≈ 1.88 µM) | >16 µg/mL | >16 µg/mL | >16 µg/mL | >16 µg/mL |  |  |  |  |  |  | 
10 | CC(=O)NC[C@H]1CN(c2ccc(N3CCN(c4ccc([N+](=O)[O-])s4)CC3)cc2)C(=O)O1 [Compound No. 6, (S)—N-[[3-[4-[N-1-(5-nitro-2-thienyl)piperazinyl]-phenyl]-2-oxo-5-oxazolidinyl]-methyl]-acetamide] |  |  | 16 µg/mL (≈ 35.9 µM) | 16 µg/mL (≈ 35.9 µM) | 16 µg/mL (≈ 35.9 µM) | 16 µg/mL (≈ 35.9 µM) |  |  |  |  |  |  | 
